Assay results as given in patent US10179791B2, “Spiro-cyclic amine derivatives as S1P modulators” (AbbVie B.V., priority 2010, dated 2019).
Counter-ions that a name gives are not always drawn. Like-named read-outs stand apart in the source and are kept apart here.

How the values were obtained:
Format in all cases: cell-based
human S1P5 receptor = human S1P5 receptor (Homo sapiens (Human), UniProt Q9H228); experiment: In vitro functional activity (agonism) on human S1P5 receptors, CHO-human-S1P5-Aequorin assay; details: aequorin luminescence, CHO cells, 3 independent experiments
Text: In Vitro Functional Activity (Agonism) on Human S1P5 Receptors
(§1) The CHO-human-S1P5-Aeqorin assay was bought from Euroscreen, Brussels (Euroscreen, Technical dossier, Human Lysophospholid S1P5 (Edg8) receptor, DNA clone and CHO AequoScreen™ recombinant cell-line, catalog no: ES-593-A, September 2006). Human-S1P5-Aequorin cells express mitochondrial targeted apo-Aequorin. Cells have to be loaded with coelanterazine, in order to reconstitute active Aequorin. After binding of agonists to the human S1P5 receptor the intracellular calcium concentration increases and binding of calcium to the apo-Aequorin/coelenterazine complex leads to an oxidation reaction of coelenterazine, which results in the production of apo-Aequorin, coelenteramide, CO2 and light ([…]max 469 nm). This luminescent response is dependent on the agonist concentration. Luminescence is measured using the MicroBeta Jet (Perkin Elmer). Agonistic effects of compounds are expressed as pEC50. Compounds were tested at a 10 points half log concentration range, and 3 independent experiments were performed in single point's measurements.

human S1P3 receptor = human S1P3 receptor (Homo sapiens (Human), UniProt Q99500); experiment: In vitro functional activity (agonism) on human S1P3 receptors, CHO-human-S1P3-Aequorin assay; details: aequorin luminescence, CHO K1 cells, 3 independent experiments, read-out: S1P3 pEC50 (converted)
Text: In Vitro Functional Activity (Agonism) on Human S1P3 Receptors
The CHO-human-S1P3-Aeqorin assay (CHO/Gα16/AEQ/h-S1P3) was established at Solvay Pharmaceuticals. The plasmid DNA coding for the S1P3 receptor (accession number in GenBank NM_005226 was purchased from UMR cDNA resource Centre (Rolla, Mo.). The pcDNA3.1/hS1P3 construct carrying the mitochondrially targeted apo-Aeqorin and Gal6 protein was transfected in CHO K1 cell-line.
as §1, with “Human-S1P3-Aequorin” for “The CHO-human-S1P5-Aeqorin assay was bought from Euroscreen, Brussels (Euroscreen, Technical dossier, Human Lysophospholid S1P5 (Edg8) receptor, DNA clone and CHO AequoScreen™ recombinant cell-line, catalog no: ES-593-A, September 2006). Human-S1P5-Aequorin”, “S1P3” for “S1P5”

human S1P1 = human S1P1 (Homo sapiens (Human), UniProt P21453); experiment: In vitro functional activity (agonism) on human S1P1 receptors (method A), CHO-K1-human-S1P1-Aequorin assay
Text: In Vitro Functional Activity (Agonism) on Human S1P1 Receptors (Method A)
as §1, with “Human-S1P1-Aequorin” for “The CHO-human-S1P5-Aeqorin assay was bought from Euroscreen, Brussels (Euroscreen, Technical dossier, Human Lysophospholid S1P5 (Edg8) receptor, DNA clone and CHO AequoScreen™ recombinant cell-line, catalog no: ES-593-A, September 2006). Human-S1P5-Aequorin”, “S1P1” for “S1P5”, “2” for “3”

[1] = agonism, determined using method A (aequorin luminescence, CHO-K1 cells), 2 independent experiments, read-out: S1P1^A pEC50 (converted)

Chain of human S1P3 receptor (Q99500 whole entry): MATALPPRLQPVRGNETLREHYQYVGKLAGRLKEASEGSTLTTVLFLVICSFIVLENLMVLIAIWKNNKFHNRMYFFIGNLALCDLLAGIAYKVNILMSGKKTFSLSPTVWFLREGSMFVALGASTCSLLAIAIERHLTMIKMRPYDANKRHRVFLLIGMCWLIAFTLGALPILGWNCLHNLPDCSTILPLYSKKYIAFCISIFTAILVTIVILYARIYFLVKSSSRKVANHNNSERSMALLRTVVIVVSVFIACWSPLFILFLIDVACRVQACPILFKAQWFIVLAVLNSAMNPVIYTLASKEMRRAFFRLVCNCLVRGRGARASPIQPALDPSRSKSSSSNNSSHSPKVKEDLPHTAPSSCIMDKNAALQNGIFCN
Chain of human S1P5 receptor (Q9H228 whole entry): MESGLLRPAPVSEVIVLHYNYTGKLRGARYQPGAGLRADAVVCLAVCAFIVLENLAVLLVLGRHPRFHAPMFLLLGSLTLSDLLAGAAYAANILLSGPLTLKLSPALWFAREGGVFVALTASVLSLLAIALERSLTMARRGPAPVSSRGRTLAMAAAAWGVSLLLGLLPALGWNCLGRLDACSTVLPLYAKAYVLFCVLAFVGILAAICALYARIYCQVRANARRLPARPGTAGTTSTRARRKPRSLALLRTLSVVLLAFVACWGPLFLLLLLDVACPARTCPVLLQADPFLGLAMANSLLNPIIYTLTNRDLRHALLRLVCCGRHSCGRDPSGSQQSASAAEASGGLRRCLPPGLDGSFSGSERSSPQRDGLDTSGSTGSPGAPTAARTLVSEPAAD
Chain of human S1P1 (P21453 whole entry): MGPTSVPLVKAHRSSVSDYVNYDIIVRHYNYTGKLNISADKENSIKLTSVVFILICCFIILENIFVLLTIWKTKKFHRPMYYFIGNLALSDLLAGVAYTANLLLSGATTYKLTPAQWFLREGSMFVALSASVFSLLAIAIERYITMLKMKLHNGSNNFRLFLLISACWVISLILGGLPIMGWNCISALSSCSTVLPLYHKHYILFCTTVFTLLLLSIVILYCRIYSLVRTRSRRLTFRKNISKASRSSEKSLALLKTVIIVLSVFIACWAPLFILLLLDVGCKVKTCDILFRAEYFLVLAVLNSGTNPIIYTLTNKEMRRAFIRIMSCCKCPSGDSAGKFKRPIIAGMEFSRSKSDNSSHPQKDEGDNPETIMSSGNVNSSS

| Compound | S1P5 pEC50 (human S1P5 receptor) | EC50 (human S1P3 receptor) | EC50 (human S1P1; [1]) | EC50 (human S1P1) |
| --- | --- | --- | --- | --- |
| O=C(O)CCN1CCC2(CC1)COc1cc(S(=O)(=O)Cc3c(Cl)cccc3Cl)ccc12 [Compound 299, 3-(6-{[(2,6-Dichlorophenyl)methane]sulfonyl}-2H-spiro[1-benzofuran-3,4′-piperidine]-1′-yl}propanoic acid hydrochloride] | 6 | > 10 µM | > 31.6 µM |  |
| CC(CN1CCC2(CC1)COc1cc(SCc3c(Cl)cccc3Cl)ccc12)C(=O)O (centres unmarked) [Compound 153, 3-(6-{[(2,6-Dichlorophenyl)methyl]sulfanyl}-2H-spiro[1-benzofuran-3,4′-piperidine]-1′-yl}-2-methylpropanoic acid hydrochloride] | 7.9 |  | 1 µM |  |
| O=C(O)CCN1CCC2(CC1)COc1cc(OCc3c(Cl)cccc3C3CC3)ccc12 [Compound 75, 3-{6-[(2-Chloro-6-cyclopropyl)phenyl)methoxy]-2H-spiro[1-benzofuran-3,4′-piperidine]-1′-yl}propanoic acid hydrochloride] | 7.7 | > 10 µM | 2.51 µM |  |
| CCCCCCCOc1ccc2c(c1F)OCC21CCN(CCC(=O)O)CC1 [Compound 276, 3-[7-fluoro-6-(heptyloxy)-2H-spiro[1-benzofuran-3,4′-piperidine]-1′-yl]propanoic acid] | 7.1 | > 10 µM | > 31.6 µM |  |
| O=C(O)CN1CCC2(CC1)COc1cc(C3CC3c3c(Cl)cccc3Cl)ccc12 (centres unmarked) [Compound 176, 2-{6-[2-(2,6-Dichlorophenyl)cyclopropyl]-2H-spiro[1-benzo-furan-3,4′-piperidine]-1′-yl}acetic acid hydrochloride] | 7.6 | > 10 µM | > 31.6 µM |  |
| O=C(O)CCCN1CCC2(CC1)COc1cc(OCc3c(Cl)cccc3C3CC3)ccc12 [Compound 121, 4-{6-[(2-Chloro-6-cyclopropylphenyl)methoxy]-2H-spiro[1-benzofuran-3,4′-piperidine]-1′-yl}butanoic acid hydrochloride] | 7.1 | > 10 µM | 5.01 µM |  |
| O=C(O)CCN1CCCC2(COc3cc(OCc4c(Cl)cccc4Cl)ccc32)C1 (centres unmarked) [Compound 321, 3-{6-[(2,6-Dichlorophenyl)methoxy]-2H-spiro[1-benzofuran-3,3′-piperidine]-1′-yl}propanoic acid hydrochloride] | 7.1 | > 10 µM | > 31.6 µM |  |
| O=C(O)CCN1CCCC2(COc3cc(OCc4c(Cl)cccc4C4CC4)ccc32)C1 (centres unmarked) [Compound 317, 3-{6-[(2-Chloro-6-cyclopropylphenyl)methoxy]-2H-spiro[1-benzofuran-3,3′-piperidine]-1′-yl}propanoic acid hydrochloride] | 7 | > 10 µM | > 31.6 µM |  |
| O=C(O)CCN1CCC2(CC1)COc1cc(OCc3c(Cl)cccc3OC(F)(F)F)ccc12 [Compound 77, 3-(6-{[2-Chloro-6-(trifluoromethoxy)phenyl]methoxy}-2H-spiro[1-benzofuran-3,4′-piperidine]-1′-yl)propanoic acid hydrochloride] | 7.6 | > 10 µM | 6.31 µM |  |
| O=C(O)CN1CCC2(CC1)COc1cc(OCc3c(Cl)cc(Cl)cc3Cl)ccc12 [Compound 110, 2-{6-[(2,4,6-Trichlorophenyl)methoxy]-2H-spiro[1-benzofuran-3,4′-piperidine]-1′-yl}acetic acid hydrochloride] | 7.8 | 2 µM | > 10 µM |  |
| CCCCCCCCOc1ccc2c(c1F)OCC21CCN(CCC(=O)O)CC1 [Compound 277, 3-[7-fluoro-6-(octyloxy)-2H-spiro[1-benzofuran-3,4′-piperidine]-1′-yl]propanoic acid] | 7.8 | > 10 µM | 0.0794 µM |  |
| CCc1cccc(Cl)c1COc1ccc2c(c1F)OCC21CCN(CCC(=O)O)CC1 [Compound 136, 3-{6-[(2-Chloro-6-ethylphenyl)methoxy]-7-fluoro-2H-spiro[1-benzofuran-3,4′-piperidine]-1′-yl}propanoic acid hydrochloride] | 8 | > 10 µM | 1.26 µM |  |
| CCc1cccc(CC)c1COc1ccc2c(c1)OCC21CCN(CCC(=O)O)CC1 [Compound 258, 3-{6-[(2,6-diethylphenyl)methoxy]-2H-spiro[1-benzo-furan-3,4′-piperidine]-1′-yl}propanoic acid] | 7.8 | > 10 µM |  | 2.51 µM |
| O=C(O)CCN1CCC2(CC1)COc1cc(SCc3c(Cl)cc(Cl)cc3Cl)ccc12 [Compound 143, 3-(6-{[(2,4,6-Trichlorophenyl)methyl]sulfanyl}-2H-spiro[1-benzofuran-3,4′-piperidine]-1′-yl}propanoic acid hydrochloride] | 7.5 |  | > 10 µM |  |
| CC(C)c1cccc(Cl)c1COc1ccc2c(c1)OCC21CCN(CCCC(=O)O)CC1 [Compound 127, 4-(6-{[2-Chloro-6-(propan-2-yl)phenyl]methoxy}-2H-spiro[1-benzofuran-3,4′-piperidine]-1′-yl)butanoic acid hydrochloride] | 6.9 | 2.51 µM | 7.94 µM |  |
| O=C(O)CCN1CCC2(CC1)COc1c2ccc(OCc2c(Cl)cc(Cl)cc2Cl)c1F [Compound 132, 3-{7-Fluoro-6-[(2,4,6-trichlorophenyl)methoxy]-2H-spiro[1-benzofuran-3,4′-piperidine]-1′-yl}propanoic acid hydrochloride] | 8.3 | 2 µM | > 31.6 µM |  |
| CCc1cccc(Cl)c1CSc1ccc2c(c1)OCC21CCN(CCC(=O)O)CC1 [Compound 140, 3-(6-{[(2-Chloro-6-ethylphenyl)methyl]sulfanyl}-2H-spiro[1-benzofuran-3,4′-piperidine]-1′-yl}propanoic acid hydrochloride] | 8.5 | > 10 µM |  | 0.158 µM |
| O=C(O)CCN1CCC2(CC1)COc1cc(OCc3c(Cl)cccc3Cl)ccc12 [Compound 29, 3-{6-[(2,6-Dichlorophenyl)methoxy]-2H-spiro[1-benzofuran-3,4′-piperidine]-1′-yl}propanoic acid hydrochloride] | 7 | > 31.6 µM |  | > 10 µM |
| CCc1cccc(Cl)c1CSc1ccc2c(c1F)OCC21CCN(CCC(=O)O)CC1 [Compound 296, hydrochloride] | 8.7 | > 10 µM |  |  |
| CCc1cccc(Cl)c1COc1ccc2c(c1)OCC21CCN(CC(=O)O)CC1 [Compound 111, 2-{6-[(2-Chloro-6-ethylphenyl)methoxy]-2H-spiro[1-benzofuran-3,4′-piperidine]-1′-yl}acetic acid hydrochloride] | 7.6 | 2 µM | > 10 µM |  |
| O=C(O)CCN1CCCC2(COc3cc(OCc4c(Cl)cccc4C(F)(F)F)ccc32)C1 (centres unmarked) [Compound 326, 3-(6-{[2-Chloro-6-(trifluoromethyl)phenyl]methoxy}-2H-spiro[1-benzofuran-3,3′-piperidine]-1′-yl)propanoic acid] |  | > 10 µM | > 31.6 µM |  |
| CC(CN1CCC2(CC1)COc1cc(OCc3c(Cl)cc(Cl)cc3Cl)ccc12)C(=O)O (centres unmarked) [Compound 102, 2-Methyl-3-{6-[(2,4,6-trichlorophenyl)methoxy]-2H-spiro[1-benzofuran-3,4′-piperidine]-1′-yl}propanoic acid hydrochloride] | 7.8 |  | 0.631 µM |  |
| CC(C)c1cccc(F)c1COc1ccc2c(c1)OCC21CCN(CCC(=O)O)CC1 [Compound 252, 3-(6-{[2-fluoro-6-(propan-2-yl)phenyl]methoxy}-2H-spiro[1-benzofuran-3,4′-piperidine]-1′-yl)propanoic acid] |  | 5.01 µM |  |  |
